Experimental data as given in patent US5321130A, “Unsymmetrical cyanine dyes with a cationic side chain” (priority 1992, dated 1994).

Tests used:
[1] = system: calf thymus DNA; experiment: Absorption spectra of dye bound to calf thymus DNA; type: binding; details: pH 7.4 + DNA, ratio of 50 DNA base pairs per dye molecule or greater
Experimental: Absorption spectra of solutions of Compounds 1-8 (4 μM) in pH 7.4 buffer (10 mM Tris, 1 mM EDTA and 50 mM NaCl) are recorded on a Perkin-Elmer Lambda 6 spectrophotometer after the addition of sufficient calf thymus DNA (Sigma Chemical Co. D-1501) to yield a ratio of 50 DNA base pairs per dye molecule or greater. The spectra are normalized to a maximum absorbance of 1.0 by numerical rescaling.
The absorption spectrum of Compound 4 in buffer, prepared as for FIG. 1, is recorded on a Perkin-Elmer Lambda 6 spectrophotometer before and after addition of calf thymus DNA. The spectra are not rescaled, illustrating the changes in extinction coefficient and absorption wavelength range accompanying binding to DNA.
(§1) The strength of absorption and/or fluorescence is indicated by the extinction coefficient. The maximum extinction coefficient (εmax) for the unbound dyes is calculated from the longest wavelength absorption maximum according to the Beer-Lambert law based on the known concentration of the solutions. The extinction coefficient for the dye bound to DNA is calculated from the change in maximum absorbance compared to the dye in free aqueous solution. Typically the extinction coefficient for both bound and unbound dyes is between about 50,000 M^-1 cm^-1 and about 150,000 M^-1 cm^-1.
(§2) Solutions of Compounds 1-8 are prepared by accurately weighing 5 mg quantities and dissolving in DMSO (dimethylsulfoxide) to give a 1 mg/ml stock solution. These solutions are diluted 200 fold into either methanol or a pH 7.4 buffer solution comprising 10 mM Tris, 1 mM EDTA and 50 mM NaCl. Each absorption spectrum is recorded on an IBM Instruments 9420 spectrophotometer. The absorption maximum for each dye without the presence of nucleic acid polymers (λA) is tabulated (Table 2). To the solutions of Compounds 1-8 in pH 7.4 buffer is added sufficient calf thymus DNA (Sigma Chemical Co. D-1501) stock solution calculated to yield a ratio of 50 DNA base pairs per dye molecule or greater. The absorption maximum for each dye bound to DNA is again tabulated (Table 2). […] Where the spectra are not rescaled, the changes in extinction coefficient and absorption wavelength range accompanying binding to DNA are clearly illustrated (FIG. 2).

[2] = system: calf thymus DNA; experiment: Fluorescence emission spectra and enhancement on binding to calf thymus DNA; details: 0.4 μM dye; for λF (fluorescence maximum), bound to DNA: pH 7.4 + DNA; for Enhancement (QY + DNA)/(QY - DNA): pH 7.4, DNA:fluorophore ratio of 50 bp:1 or greater
Experimental: Fluorescence emission spectra of solutions (0.4 μM) of Compounds 1-8 in pH 7.4 buffer (10 mM Tris, 1 mM EDTA and 50 mM NaCl), after sufficient calf thymus DNA (Sigma Chemical Co. D-1501) is added to yield a ratio of 50 DNA base pairs per dye molecule or greater, are recorded on an Alphascan spectrofluorometer (PTI Inc.) with excitation at approximately (λA -25 nm) where λA is the absorption maximum of the dye bound to DNA (Table 2).
Solutions of each of Compounds 1-8 (0.4 μM) in pH 7.4 buffer (10 mM Tris, 1 mM EDTA and 50 mM NaCl) are prepared as above. Fluorescence emission spectra are recorded on an Alphascan spectrofluorometer (PTI Inc.) with excitation at approximately (λA -25 nm) where λA is the absorption maximum of the dye bound to DNA. After sufficient calf thymus DNA (Sigma Chemical Co. D-1501) is added to yield a ratio of 50 DNA base pairs per dye molecule or greater, fluorescence emission spectra are again recorded (Table 2). The spectra are integrated and enhancement ratio (Table 2) is calculated as follows: [formula] in which the ratio (A-)/(A+) is the ratio of the absorbances for the free and bound dye respectively at the excitation wavelength.

[3] = Absorption spectra of free dye in methanol or pH 7.4 buffer; type: physicochemical; details: no DNA
Experimental: as §1, §2

[4] = system: DNA of mouse fibroblast 3T3 cells; experiment: Analysis of cellular DNA content (lysed 3T3 cells, fluorescence); type: cell-based
Experimental: Mouse fibroblast 3T3 cells aliquoted into microtiter plates are subjected to a freeze/thaw protocol to lyse cells and release DNA into solution. Compound 3 in TNE buffer is added to each well and the plates are scanned in a Cytofluor 2350 microtiter plate reader (Millipore Corp.) with excitation at 485 nm and emission detected at 530 nm. […] Treatment of half the wells with 20 μg/ml DNAse 1 for one hour at 37° C. in DNAse 1 buffer (10 mM MnCl2, 50 mM TRIS, pH 7.7) eliminates more than 95% of the fluorescence (filled circles).
The method of Rago et al. [Analytical Biochemistry 191, 31 (1990)] is adapted for use with the nucleotide-specific stain Compound 3. 3T3 cells (a mouse fibroblast cell line) are aliquoted into 96-well microtiter plates and allowed to adhere over a period of 4 hours. Cell numbers used are between 100 and 100,000 in 100 μl of Dulbecco's Modified Eagle Medium (DMEM). […]
For fluorescence analysis, 100 μl of distilled water is added to each well and the plates incubated at 37° C. for one hour, frozen at -80° C. then thawed to room temperature. […] 100 μl of 10 μM Compound 3 in TNE buffer (2 M NaCl, 10 mM TRIS, 1 mM EDTA pH 7.4) is added to each well and the plates scanned in a Cytofluor 2350 microtiter plate reader (Millipore Corp.) with excitation at 485 nm and emission detected at 530 nm. […]

[5] = system: calf thymus DNA; experiment: Dye/nucleic acid affinity: partition coefficient Kp by fluorescence titration with DNA; type: binding
Experimental: The fluorescence intensity (F) determined in a fluorescence plate reader (CytoFluor from Millipore Corporation), is measured versus DNA concentration expressed in terms of base pairs concentration (B). […] In all the titrations, [Dye]/[Base Pair] is always […] than 3 to fulfill the requirements of the partition model.
The nucleic acid/water partition coefficient (Kp) representing the relative affinity of the dye for DNA is calculated from the fluorescence data according to the following formula:
1/F=[5.6·10^7 /(Kp Fo)](1/B)+1/Fo
where 5.6·10^7 (μM) is water molar concentration; B is the concentration of base pairs; and Fo is the fluorescence enhancement at saturation. Table 3 gives the Kp values of representative dyes via the partition model in the presence of 10% ethanol.

[6] = system: DNA or RNA; experiment: Optical properties upon binding with DNA or RNA (general statements); details: binding to nucleic acid polymers
From the text: The enhanced fluorescence of the dyes in the bound versus unbound state is exemplified in Table 2. In particular, the absorption curve typically shifts to a longer wavelength. Typically, the absorption curve shift is between about 5 and about 20 nm. […] When combined with nucleic acid polymers, the novel dyes of this invention generally have a Stokes shift of between about 15 to about 30 nm. Table 2 includes the excitation and emission maxima (λA and λF respectively) for Compounds 1-8.
The fluorescence of the novel dyes bound to DNA or RNA is enhanced at least about 9 fold. Typically fluorescence is enhanced at least about 100 fold, sometimes as much as 1000 fold or more, depending on the amount and purity of the dye present in the sample (Table 2). This significant increase in fluorescence intensity reduces or eliminates the problem of background fluorescence due to unbound dye, thus avoiding the necessity to separate the unbound dye before measuring the fluorescence. Even where the dyes are intrinsically fairly fluorescent, however, such that the enhancement in fluorescence quantum yield which results from binding to nucleic acid polymers is less than 10 fold (e.g. Compound 5), the significant shift in absorption maxima that results from such binding (see Table 2, FIG. 2) can be used to quantitatively or qualitatively measure the presence of nucleic acid polymers.

| SMILES | εmax (extinction coefficient), bound to DNA [1] | λA (absorption maximum), bound to DNA [1] | λF (fluorescence maximum), bound to DNA [2] | Enhancement (QY + DNA)/(QY - DNA) [2] | εmax (extinction coefficient) ([3]; methanol) | λA (absorption maximum) ([3]; methanol) | εmax (extinction coefficient) ([3]; pH 7.4 buffer) | λA (absorption maximum) ([3]; pH 7.4 buffer) | fluorescence eliminated by DNAse 1 treatment ([4]; 20 μg/ml DNAse 1, one hour, 37° C.) | fluorescence versus cell number ([4]; Ex 485 nm, Em 530 nm, TNE buffer) | effect of ethanol on DNA affinity (Kp) ([5]; 10% ethanol) | apparent affinity Kp, effect of dye concentration ([5]; binding buffer without ethanol, 0.1 vs 0.22 μM dye) | enhancement in fluorescence quantum yield on binding [6] |
| --- | --- | --- | --- | --- | --- | --- | --- | --- | --- | --- | --- | --- | --- |
| C[n+]1c(C=C2C=CN(CCC[N+](C)(C)C)C=C2)oc2ccccc21 [Compound 1] | 50,100 M^-1 cm^-1 | 435 nm | 455 nm | 456 x | 77,500 M^-1 cm^-1 | 423 nm | 75,500 M^-1 cm^-1 | 423 nm |  |  |  |  |  |
| C[n+]1c(C=C2C=CN(CCC[N+](C)(C)C)C=C2)sc2ccccc21 [Compound 2] | 58,100 M^-1 cm^-1 | 462 nm | 481 nm | 892 x | 80,200 M^-1 cm^-1 | 452 nm | 76,200 M^-1 cm^-1 | 451 nm |  |  |  |  |  |
| C[n+]1c(C=C2C=CN(CCC[N+](C)(C)C)c3ccccc32)oc2ccccc21 [Compound 3] | 52,013 M^-1 cm^-1 | 491 nm | 509 nm | 925 x | 72,600 M^-1 cm^-1 | 482 nm | 66,000 M^-1 cm^-1 | 481 nm | more than 95% | linear increase of fluorescence with cell number |  |  |  |
| C[n+]1c(C=C2C=CN(CCC[N+](C)(C)C)c3ccccc32)sc2ccccc21 [Compound 4] | 62,800 M^-1 cm^-1 | 515 nm | 531 nm | 1806 x | 73,800 M^-1 cm^-1 | 507 nm | 68,500 M^-1 cm^-1 | 506 nm |  |  | ethanol decreases the DNA affinity | larger with 0.1 μM dye than with 0.22 μM |  |
| C[n+]1c(C=CC=CC=C2C=CN(CCC[N+](C)(C)C)C=C2)oc2ccccc21 [Compound 5] |  | 532 nm | 562 nm | 9 x |  | 525 nm |  | 523 nm |  |  |  |  | less than 10 fold |
| C[n+]1c(C=CC=CC=C2C=CN(CCC[N+](C)(C)C)C=C2)sc2ccccc21 [Compound 6] |  | 575 nm | 599 nm | 29 x |  | 564 nm |  | 560 nm |  |  |  |  |  |
| C[n+]1c(C=CC=C2C=CN(CCC[N+](C)(C)C)c3ccccc32)oc2ccccc21 [Compound 7] | 100,100 M^-1 cm^-1 | 612 nm | 631 nm | 155 x | 133,100 M^-1 cm^-1 | 600 nm | 122,000 M^-1 cm^-1 | 596 nm |  |  |  |  |  |
| C[n+]1c(C=CC=C2C=CN(CCC[N+](C)(C)C)c3ccccc32)sc2ccccc21 [Compound 8] | 102,000 M^-1 cm^-1 | 642 nm | 661 nm | 80 x | 143,200 M^-1 cm^-1 | 635 nm | 98,200 M^-1 cm^-1 | 631 nm |  |  |  |  |  |
